In patent US8729074B2, “Inhibitors of PI3 kinase” (Amgen Inc., priority 2009, dated 2014) one finds IC50 data, which are given here for 19 compounds.

In assay [1] the target is PI3Kα (Homo sapiens (Human), UniProt P42336). As to the kind of experiment: In vitro PI3 kinase enzyme assay (PI3K ATPLoss). The class given is biochemical. To be noted: average if run more than once. As to the method: Recombinant Expression of PI3K Enzymes
Full length p110 subunits of PI3K α, β and δ, N-terminally labeled with polyHis tag, can be co-expressed with p85 with Baculo virus expression vectors in sf9 insect cells. P110/p85 heterodimers can be purified by sequential Ni-NTA, Q-HP, Superdex-100 chromatography. Purified α, β and δ isozymes can be stored at −20° C. in 20 mM Tris, pH 8, 0.2M NaCl, 50% glycerol, 5 mM DTT, 2 mM Na cholate. […] The γ isozyme can be purified by sequential Ni-NTA, Superdex-200, Q-HP chromatography. The γ isozyme can be stored frozen at −80° C. in NaH2PO4, pH 8, 0.2M NaCl, 1% ethylene glycol, 2 mM β-mercaptoethanol.
In Vitro PI3 Kinase Enzyme Assays (PI3K ATPLoss)
PI3K enzyme assays (alpha, beta, delta and gamma) can be performed in 25 μL with the above final concentrations of components in white polyproplyene plates. Phosphatidyl inositol phosphoacceptor, PtdIns(4,5)P2 (e.g., P4508) can be obtained from Echelon Biosciences, Salt Lake City, Utah. […] Test compounds can be dissolved in DMSO and diluted with three-fold serial dilutions. The compound in DMSO (1 μL) may be added per test well, and the inhibition relative to reactions containing no compound, with and without enzyme can be determined. After assay incubation at RT, the reaction can be stopped and residual ATP can be determined by addition of an equal volume of a commercial ATP bioluminescence kit (Perkin Elmer EasyLite, Perkin Elmer, Waltham, Mass.) according to the manufacturer's instructions, and detected using an Analyst GT luminometer.

The subject of assay [2] is phosphorylation of Akt at Serine 473 in U87 MG cells. As to the kind of experiment: pAkt AlphaScreen (U87 cell). Type of assay: cell-based. To be noted: Homo sapiens, U-87 MG, 2 h; pAkt Ser473, U87 MG cells, compound two hours; average if run more than once. Here is the method:
pAkt AlphaScreen (U87 Cell)
The pAkt AlphaScreen® assay (PerkinElmer, Waltham, Mass.) determines whether there is phosphorylation of Akt at Serine 473 by recruitment of a phosphospecific antibody. This assay was performed using U87 MG cells. The U87 growth media consists of MEM (Gibco, Carlsbad, Calif.) supplemented with 10% FBS (Gibco), 1× Non-Essential Amino Acids (Gibco) and 1× Penicillin/Streptomycin/Glutamine (Gibco). The cells were maintained weekly using 0.05% Trypsin (Gibco) and replated in 150 mm TC—Treated Culture Dishes (Corning, Corning, N.Y.).
The first day of the assay, the adherent cells were trypsinized, media was added to the loose cells and cells were mixed to a homogenous mixture. 0.5 ml of the homogenous mixture was counted on the Beckman Coulter® Vi-CELL™ XR (Fullerton, Calif.). 50 frames of cells were counted and the number of viable cells was determined. The cells were then diluted to 0.25 million cells per ml, and centrifuged at 200 rcf for 5 minutes. The media was removed and the cells were reconstituted in fresh media for plating. The cells were plated at 20 μl per well on the PerkinElmer® Flexprop PLUS in Low Volume 384 Well White Tissue Culture Plates (Corning) with a final cell density of 5K cells per well. The plates were incubated overnight at 37° Celsius, 5% CO2.
On the second day, the compound plates were prepared, the cells were treated with compound and the pAkt reaction mix was added to the cell lysate. 384 well compound plates were prepared containing 1 μl of compound per well starting at 5 mM and diluted 1:2 across the row, resulting in a 22 well serial dilution. 39 μl of growth media was added to the compound plate in rows 1-22 using the PerkinElmer® Flexprop PLUS resulting in a DMSO concentration of 2.5%. The cell plates and diluted compound plates were put onto the VELOCITY11™ VPREP™ 384 ST where the compound plate was mixed and 5 μl of serially diluted compound or controls was added to the cell plate. The final concentration of the compounds was 25 μM serially diluted to 11.9 pM in 0.5% DMSO. The cell plates were then incubated with compound for two hours at 37° Celsius, 5% CO2. After two hours, the media in the cell plates was aspirated using the BioTek® ELx405HT plate washer (Winooski, Vt.) removing the majority of media and compound without disturbing the adherent U87 cells. The following assay reagents are components of the SureFire® Akt (Ser 473) Phosphorylation 50K Point Kit (TGR BioSciences, Adelaide, Australia) and an IgG Detection Kit (PerkinElmer, Waltham, Mass.). 5 μl of 1× Lysis Buffer was added to each well using the PerkinElmer® Flexprop PLUS. The plates were then incubated at room temperature on a shaker for ten minutes. The AlphaScreen® reaction was prepared under low light conditions (subdued or green light) including p-Akt (Ser 473) Reaction Buffer, Dilution Buffer, Activation Buffer, Acceptor Beads and Donor Beads at a ratio of 40:20:10:1:1 respectively. The AlphaScreen® reaction was added to the cell lysate at 6 μl per well using the PerkinElmer® Flexprop PLUS. The plates were placed in a humid environment to reduce edge effects and incubated overnight at room temperature with restricted air flow in the dark.
On the final day of the experiment, the plates were read on the PerkinElmer® EnVision™ 2103 Multilable Reader using the standard AlphaScreen® readout. The POC is calculated and the data is analyzed to report the IC50 IP for pAkt at Serine 473.
Activity data for the compounds tested in the PI3K cell based Akt assay is provided in Table 1 under the column heading U87

Where only a bound is given, the exact number is not on record here.

Chain of PI3Kα (P42336 whole entry): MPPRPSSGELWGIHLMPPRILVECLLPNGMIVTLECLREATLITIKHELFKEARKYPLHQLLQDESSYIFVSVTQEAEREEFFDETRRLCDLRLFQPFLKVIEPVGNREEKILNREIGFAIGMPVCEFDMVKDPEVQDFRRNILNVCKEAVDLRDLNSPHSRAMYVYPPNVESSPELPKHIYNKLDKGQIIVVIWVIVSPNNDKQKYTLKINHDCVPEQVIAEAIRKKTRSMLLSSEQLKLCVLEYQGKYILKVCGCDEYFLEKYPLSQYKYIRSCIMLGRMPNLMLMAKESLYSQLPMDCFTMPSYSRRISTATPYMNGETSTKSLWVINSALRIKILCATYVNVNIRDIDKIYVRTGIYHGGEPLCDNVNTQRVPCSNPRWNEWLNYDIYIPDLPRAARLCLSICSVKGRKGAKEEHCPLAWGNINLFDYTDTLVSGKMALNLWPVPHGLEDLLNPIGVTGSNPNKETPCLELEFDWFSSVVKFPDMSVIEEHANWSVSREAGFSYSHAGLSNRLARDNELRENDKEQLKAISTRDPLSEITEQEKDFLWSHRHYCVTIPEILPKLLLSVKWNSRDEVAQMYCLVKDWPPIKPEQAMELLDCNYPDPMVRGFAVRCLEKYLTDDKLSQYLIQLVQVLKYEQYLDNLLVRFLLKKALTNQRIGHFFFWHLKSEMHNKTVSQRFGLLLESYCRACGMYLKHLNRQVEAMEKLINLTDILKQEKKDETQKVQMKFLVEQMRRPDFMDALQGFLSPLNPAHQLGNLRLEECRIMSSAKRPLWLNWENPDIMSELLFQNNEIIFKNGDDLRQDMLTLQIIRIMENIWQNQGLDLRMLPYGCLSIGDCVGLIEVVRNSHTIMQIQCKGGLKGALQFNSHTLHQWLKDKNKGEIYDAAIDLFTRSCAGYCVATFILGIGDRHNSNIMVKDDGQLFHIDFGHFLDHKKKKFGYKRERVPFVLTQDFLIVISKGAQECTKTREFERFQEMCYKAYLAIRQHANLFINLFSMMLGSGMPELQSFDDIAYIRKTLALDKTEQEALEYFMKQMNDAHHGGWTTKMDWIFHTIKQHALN
Chain of PI3Kα (P27986 whole entry partner): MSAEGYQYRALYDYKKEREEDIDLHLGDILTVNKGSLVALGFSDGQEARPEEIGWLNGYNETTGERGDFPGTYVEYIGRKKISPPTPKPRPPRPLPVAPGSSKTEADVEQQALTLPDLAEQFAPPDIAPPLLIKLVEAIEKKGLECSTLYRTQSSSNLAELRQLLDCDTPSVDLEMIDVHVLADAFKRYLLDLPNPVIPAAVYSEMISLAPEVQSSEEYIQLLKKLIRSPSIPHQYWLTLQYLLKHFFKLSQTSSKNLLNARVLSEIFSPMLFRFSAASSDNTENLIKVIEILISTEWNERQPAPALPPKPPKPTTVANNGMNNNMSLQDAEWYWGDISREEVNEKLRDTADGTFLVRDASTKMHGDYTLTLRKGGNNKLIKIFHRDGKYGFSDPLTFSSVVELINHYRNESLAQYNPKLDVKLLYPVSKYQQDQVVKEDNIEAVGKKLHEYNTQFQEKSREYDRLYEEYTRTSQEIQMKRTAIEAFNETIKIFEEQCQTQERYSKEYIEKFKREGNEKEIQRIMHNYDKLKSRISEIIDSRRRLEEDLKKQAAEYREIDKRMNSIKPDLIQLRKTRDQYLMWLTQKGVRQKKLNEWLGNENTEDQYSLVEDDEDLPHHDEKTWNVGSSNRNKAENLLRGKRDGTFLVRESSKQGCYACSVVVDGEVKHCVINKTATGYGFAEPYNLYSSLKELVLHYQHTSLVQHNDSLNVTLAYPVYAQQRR

The compound `O=S(=O)(Nc1cc(-c2cnc3ccccn23)cnc1Cl)c1ccc(F)cc1` [Example 3, N-(2-Chloro-5-imidazo[1,2-a]pyridin-3-yl-3-pyridinyl)-4-fluorobenzenesulfonamide] gave an IC50 in assay [1] of 0.03 µM.
The compound `Cc1ccn2c(-c3cnc(Cl)c(NS(=O)(=O)c4ccc(F)cc4)c3)cnc2c1` [Example 4, N-(2-Chloro-5-(7-methylimidazo[1,2-a]pyridin-3-yl)-3-pyridinyl)-4-fluorobenzenesulfonamide] gave an IC50 in assay [1] of 0.013 µM. Compared with the last compound, the IC50 is about 2.3-fold lower.
As to `Cc1nc2ccc(Br)cn2c1-c1cnc(Cl)c(NS(=O)(=O)c2ccc(F)cc2)c1` [Example 5, N-(5-(6-Bromo-2-methylimidazo[1,2-a]pyridin-3-yl)-2-chloro-3-pyridinyl)-4-fluorobenzenesulfonamide], the IC50 in assay [1] is 0.016 µM; in assay [2], 1.22 µM.
For `O=S(=O)(Nc1cc(-c2cnc3ccc(Br)cn23)cnc1Cl)c1ccc(F)cc1` [Example 6, N-(5-(6-Bromoimidazo[1,2-a]pyridin-3-yl)-2-chloro-3-pyridinyl)-4-fluorobenzenesulfonamide] the same measures were 0.014 µM and 0.208 µM.
For `O=S(=O)(Nc1cc(-c2cnc3ccc(-c4ccncc4)cn23)cnc1Cl)c1ccc(F)cc1` [Example 7, N-(2-Chloro-5-(6-(4-pyridinyl)imidazo[1,2-a]pyridin-3-yl)-3-pyridinyl)-4-fluorobenzenesulfonamide], in that order: 0.005 µM and 0.042 µM.
With `O=S(=O)(Nc1cc(-c2cnc3ccc(-c4cccnc4)cn23)cnc1Cl)c1ccc(F)cc1` [Example 8, N-(2-Chloro-5-(6-(3-pyridinyl)imidazo[1,2-a]pyridin-3-yl)-3-pyridinyl)-4-fluorobenzenesulfonamide], the results for the IC50 in assay [1] and in assay [2] were 0.004 µM and 0.083 µM, respectively.
`O=S(=O)(Nc1cc(-c2cnc3ccc(N4CCOCC4)cn23)cnc1Cl)c1ccc(F)cc1` [Example 9, N-(2-Chloro-5-(6-(4-morpholinyl)imidazo[1,2-a]pyridin-3-yl)-3-pyridinyl)-4-fluorobenzenesulfonamide]: the IC50 came to 0.006 µM in assay [1] and 0.076 µM in assay [2].
With `COc1cc(-c2cnc3ccccn23)cnc1OC` [Example 10, 3-(5,6-Dimethoxy-3-pyridinyl)imidazo[1,2-a]pyridine], the IC50 is 15.7 µM in assay [1] and over 25 µM in assay [2].
In the case of `COc1cc(-c2cnc3ccc(Br)cn23)cnc1OC` [Example 11, 6-Bromo-3-(5,6-dimethoxy-3-pyridinyl)imidazo[1,2-a]pyridine], the values for the IC50 in assay [1] and in assay [2] were 1.5 µM and 4.98 µM, respectively.
Turning to `COc1cc(-c2cnc3ccc(-c4ccncc4)cn23)cnc1OC` [Example 12, 3-(5,6-Dimethoxy-3-pyridinyl)-6-(4-pyridinyl)imidazo[1,2-a]pyridine], the results for the IC50 in assay [1] and in assay [2] were 0.861 µM and 2.19 µM, respectively.
For `COc1cc(-c2cnc3ccc(N4CCOC4=O)cn23)cnc1OC` [Example 13, 3-(3-(5,6-Dimethoxy-3-pyridinyl)imidazo[1,2-a]pyridin-6-yl)-1,3-oxazolidin-2-one] the same measures were 4.67 µM and over 25 µM.
`COc1cc(-c2cnc3ccc(N4CCOCC4)cn23)cnc1OC` [Example 16, 3-(5,6-Dimethoxy-3-pyridinyl)-6-(4-morpholinyl)imidazo[1,2-a]pyridine] gave an IC50 in assay [2] of 3.99 µM.
In turn, `CN(C)S(=O)(=O)Nc1cc(-c2cnc3ccc(-c4ccncc4)cn23)cnc1Cl` [Example 18, N-(2-Chloro-5-(6-(pyridin-4-yl)imidazo[1,2-a]pyridin-3-yl)pyridin-3-yl)dimethylaminosulfonamide] came in with an IC50 in assay [2] of 0.007 µM.
Take `CN(C)S(=O)(=O)Nc1cc(-c2cnc3ccc(-c4ccnc(C(F)(F)F)c4)cn23)cnc1Cl` [Example 19, N-(2-Chloro-5-(6-(2-(trifluoromethyl)pyridin-4-yl)imidazo[1,2-a]pyridin-3-yl)pyridin-3-yl)dimethylaminosulfonamid]: the IC50 in assay [2] was found to be 0.009 µM.
As for `CS(=O)(=O)Nc1cc(-c2cnc3cc(-c4cccnc4)ccn23)cnc1Cl` [Example 20, N-(2-Chloro-5-(7-(pyridin-3-yl)imidazo[1,2-a]pyridin-3-yl)pyridin-3-yl)methanesulfonamide], the IC50 in assay [2] was determined as 0.032 µM.
Same read-out and setting: under `CN(C)S(=O)(=O)Nc1cc(-c2cnc3cc(-c4ccncc4)ccn23)cnc1Cl` [Example 21, N′-(2-Chloro-5-(7-(4-pyridinyl)imidazo[1,2-a]pyridin-3-yl)-3-pyridinyl)-N,N-dimethylsulfamide] stands 0.281 µM; under `CN(C)S(=O)(=O)Nc1cc(-c2cnc3cc(-c4cccnc4)ccn23)cnc1Cl` [Example 22, N′-(2-Chloro-5-(7-(3-pyridinyl)imidazo[1,2-a]pyridin-3-yl)-3-pyridinyl)-N,N-dimethylsulfamide], 0.168 µM; under `Cc1cc2ncc(-c3cnc(Cl)c(NS(=O)(=O)N(C)C)c3)n2cc1-c1ccncc1` [Example 23, N′-(2-Chloro-5-(7-methyl-6-(4-pyridinyl)imidazo[1,2-a]pyridin-3-yl)-3-pyridinyl)-N,N-dimethylsulfamide], 0.008 µM.
Compound `O=S(=O)(Nc1cc(-c2cnc3ccc(Cl)nn23)cnc1Cl)c1ccc(F)cc1` [Example 25, N-(2-Chloro-5-(6-chloroimidazo[1,2-b]pyridazin-3-yl)pyridin-3-yl)-4-fluorobenzenesulfonamide] displayed an IC50 in assay [1] of 0.047 µM.
